Data on 27 compounds can be found in ChEMBL document CHEMBL1667810, “New positive allosteric modulators of the metabotropic glutamate receptor 2 (mGluR2): identification and synthesis of N-propyl-8-chloro-6-substituted isoquinolones” (Bioorg Med Chem Lett, 2011).

Holding throughout (assay type): functional, cell-based
Experiment [1] addresses T1, Metabotropic glutamate receptor 2 (Homo sapiens, UniProt Q14416). As to the kind of experiment: Agonist activity at human mGluR2 expressed in CHO cells at by [S35]GTPgammaS binding assay relative to glutamate. On the technique in general: GTPγS resists hydrolysis and so accumulates on activated G proteins.
Target sequence in this assay (Q14416 19-872 limits assumed): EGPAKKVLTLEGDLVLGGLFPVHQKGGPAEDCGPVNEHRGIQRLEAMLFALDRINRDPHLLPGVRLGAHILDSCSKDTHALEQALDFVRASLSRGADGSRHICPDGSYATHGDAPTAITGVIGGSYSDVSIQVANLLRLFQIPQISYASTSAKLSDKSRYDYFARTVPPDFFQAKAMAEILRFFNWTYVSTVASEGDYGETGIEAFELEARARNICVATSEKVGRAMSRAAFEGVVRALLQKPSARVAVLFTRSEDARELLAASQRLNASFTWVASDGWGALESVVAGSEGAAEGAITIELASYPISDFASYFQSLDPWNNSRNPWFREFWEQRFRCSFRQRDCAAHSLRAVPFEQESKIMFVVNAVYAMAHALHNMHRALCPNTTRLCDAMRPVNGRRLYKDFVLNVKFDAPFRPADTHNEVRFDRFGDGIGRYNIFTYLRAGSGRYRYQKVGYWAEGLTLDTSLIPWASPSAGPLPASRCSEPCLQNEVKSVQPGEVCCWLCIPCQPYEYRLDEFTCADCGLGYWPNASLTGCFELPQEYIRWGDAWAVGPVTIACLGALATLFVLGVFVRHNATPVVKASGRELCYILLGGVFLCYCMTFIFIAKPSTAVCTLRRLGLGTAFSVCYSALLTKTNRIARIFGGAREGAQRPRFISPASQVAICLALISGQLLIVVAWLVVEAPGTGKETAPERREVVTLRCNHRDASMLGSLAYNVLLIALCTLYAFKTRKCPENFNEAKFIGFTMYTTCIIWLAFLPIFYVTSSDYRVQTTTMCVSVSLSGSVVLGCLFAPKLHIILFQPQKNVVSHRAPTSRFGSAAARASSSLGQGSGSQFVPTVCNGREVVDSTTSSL
The target of experiment [2] is T1, Metabotropic glutamate receptor 2. As to the kind of experiment: Agonist activity at human mGluR2 expressed in CHO cells at by [S35]GTPgammaS binding assay.
Target sequence in this assay (Q14416 whole entry): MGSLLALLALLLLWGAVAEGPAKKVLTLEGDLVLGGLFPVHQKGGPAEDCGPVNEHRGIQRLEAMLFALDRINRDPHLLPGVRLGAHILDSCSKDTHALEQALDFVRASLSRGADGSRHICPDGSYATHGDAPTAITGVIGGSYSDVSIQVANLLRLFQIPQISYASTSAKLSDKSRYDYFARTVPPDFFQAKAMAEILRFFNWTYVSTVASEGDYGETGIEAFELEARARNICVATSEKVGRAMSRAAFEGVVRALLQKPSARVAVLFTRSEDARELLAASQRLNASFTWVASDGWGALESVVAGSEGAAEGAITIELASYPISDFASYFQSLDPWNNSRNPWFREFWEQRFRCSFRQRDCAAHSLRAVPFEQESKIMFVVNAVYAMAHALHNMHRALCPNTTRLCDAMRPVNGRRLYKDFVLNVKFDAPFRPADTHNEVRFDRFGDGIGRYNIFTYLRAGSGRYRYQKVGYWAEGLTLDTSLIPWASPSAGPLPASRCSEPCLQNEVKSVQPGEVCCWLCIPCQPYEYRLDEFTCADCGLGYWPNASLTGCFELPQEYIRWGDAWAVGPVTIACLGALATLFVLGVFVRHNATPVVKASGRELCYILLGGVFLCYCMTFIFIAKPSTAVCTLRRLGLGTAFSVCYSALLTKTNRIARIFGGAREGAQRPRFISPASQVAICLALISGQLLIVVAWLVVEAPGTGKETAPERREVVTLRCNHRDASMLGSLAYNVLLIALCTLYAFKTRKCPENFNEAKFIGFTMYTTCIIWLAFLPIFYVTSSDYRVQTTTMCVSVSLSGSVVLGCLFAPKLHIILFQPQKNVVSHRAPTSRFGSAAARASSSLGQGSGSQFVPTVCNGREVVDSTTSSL
Experiment [3] shares this target. As to the kind of experiment: Agonist activity at human mGluR2 expressed in HEK293 cells assessed as induction of calcium release by FLIPR assay.
Target sequence in this assay (Q14416 whole entry): as above

As to `CCCn1ccc2cc(-c3ccc(OC)nc3)cc(Cl)c2c1=O`, the Emax (commonly the maximal effect, on the per cent scale that the assay sets) in experiment [1] was 121%. The EC50 – broadly, the concentration needed to bring the measured effect to its halfway point – in experiment [2] was 794 nM.
The matching figures for `CCCn1ccc2cc(OCCc3cccnc3)cc(Cl)c2c1=O`: 47% and 794 nM.
The like results for `CCCn1ccc2cc(NCc3cccnc3)cc(Cl)c2c1=O` were, in that order, 82% and 3160 nM.
`CCCn1ccc2cc(OCc3cccnc3)cc(Cl)c2c1=O` had an Emax in experiment [1] of 126%. Also, the EC50 in experiment [2] is 2510 nM.
Take `CCCn1ccc2cc(-c3ccc(Oc4ccncc4)cc3)cc(Cl)c2c1=O`: the Emax in experiment [1] stood at 90%. In experiment [2], this compound had an EC50 of 158 nM.
The like results for `CCCn1ccc2cc(-c3ccc(OCc4cccnc4)nc3)cc(Cl)c2c1=O` were, in that order, 120% and 316 nM.
`CCCn1ccc2cc(N3CCOCC3)cc(Cl)c2c1=O` had an Emax in experiment [1] of 104%. The values for the EC50 in experiment [3] and in experiment [2] were 2510 nM and 5010 nM, respectively.
For the compound `CCCn1ccc2cc(-c3ccc(Oc4ccccc4)cc3)cc(Cl)c2c1=O`, the Emax in experiment [1] amounted to 88%. The same compound gave an EC50 in experiment [2] of 2000 nM.
The matching figures for `CCCn1ccc2cc(-c3ccc(OCCc4ccccc4)nc3)cc(Cl)c2c1=O`: 103% and 631 nM.
The like results for `CCCn1ccc2cc(-c3cccnc3)cc(Cl)c2c1=O` were, in that order, 83% and 631 nM.
The like results for `CCCn1ccc2cc(N3CCC(O)CC3)cc(Cl)c2c1=O` were, in that order, 106% and 5010 nM.
Take `CCCn1ccc2cc(-c3cccnc3)cc(C#N)c2c1=O`: the EC50 in experiment [2] is > 50100 nM.
`CCCn1ccc2cc(OCCCc3cccnc3)cc(Cl)c2c1=O` registered an Emax in experiment [1] of 75%. The same compound showed an EC50 in experiment [2] of 631 nM.
In the case of `CCCn1ccc2cc(N3CCNCC3)cc(Cl)c2c1=O`, the maximal response (Emax) in experiment [1] amounted to 47%. Further, the EC50 in experiment [2] was > 10000 nM.
In turn, `CCCn1ccc2cc(-c3cccnc3)ccc2c1=O` returned an Emax in experiment [1] of 81%. The compound also gave an EC50 in experiment [2] of 7940 nM.
The matching figures for `CCCn1ccc2cc(-c3ccc(OCc4ccc(Cl)nc4)cc3)cc(Cl)c2c1=O`: 81% and 398 nM.
`CCCn1ccc2cc(-c3ccncc3)cc(Cl)c2c1=O` returned an Emax in experiment [1] of 73%. The compound further gave an EC50 in experiment [2] of 1260 nM.
The like results for `CCCn1ccc2cc(-c3ccc(OCc4cccnc4)cc3)cc(Cl)c2c1=O` were, in that order, 64% and 1260 nM.
`CCCn1ccc2cc(-c3cnc(OC)c(F)c3)cc(Cl)c2c1=O` registered an Emax in experiment [1] of 75%. This compound gave an EC50 in experiment [2] of 398 nM.
The like results for `CCCn1ccc2cc(N3CCOCC3)ccc2c1=O` were, in that order, 66% and > 10000 nM.
As to `CCCn1ccc2cc(-c3ccc(Oc4ccccc4)nc3)cc(Cl)c2c1=O`, the Emax in experiment [1] is 92%. In experiment [2], this compound gave an EC50 of 501 nM.
The like results for `CCCn1ccc2cc(-c3ccc(N4CCOCC4)nc3)cc(Cl)c2c1=O` were, in that order, 84% and 794 nM.
On to `CCCn1ccc2cc(-c3ccc(N(C)C)nc3)cc(Cl)c2c1=O`, for which the Emax in experiment [1] is 85%. This compound also showed an EC50 in experiment [2] of 5010 nM.
In experiment [1], `CCCn1ccc2cc(-c3ccc(OC)cc3)cc(Cl)c2c1=O` showed an Emax of 136%. For the same compound, in experiment [2], the midpoint of the response, the EC50, lay at 316 nM.
The like results for `CCCn1ccc2cc(-c3cncnc3)cc(Cl)c2c1=O` were, in that order, 28% and 3980 nM.
The like results for `CCCn1ccc2cc(-c3cn[nH]c3)cc(Cl)c2c1=O` were, in that order, 65% and 1580 nM.
Compound `CCCn1ccc2cc(-c3ccc(OCc4ccc(C(F)(F)F)nc4)cc3)cc(Cl)c2c1=O` returned an Emax in experiment [1] of 170%. Moreover, the EC50 in experiment [2] is 251 nM.
